40 molecules from the OPERA property sets (Mansouri et al. 2018) can be followed below.

Conditions in the first series: not given
On to `CCCCCCCCCC1CCCCC1`, for which the boiling point was 282 °C, the log10 vapour pressure (mmHg) is -2.61 and the melting point is -10 °C. Turning to `Ic1cc(I)c(I)cc1I`, the melting point came to 254 °C. For `CC(CC(C)(C)O)OC(O)C(Cl)(Cl)Cl` (configuration not stated), the melting point came to 103 °C. Take `CCN(CC)C(=O)[C@@H]1C=C2c3cccc4[nH]c(Br)c(c34)C[C@H]2N(C)C1`: the melting point was found to be 124 °C. As for `O=[N+]([O-])c1ccccc1I`, the boiling point worked out at 290 °C and the melting point was 54 °C. Turning to `CCOC(C)Cl` (configuration not stated), the boiling point came out at 93.5 °C. Molecule `Clc1nc2ccccc2s1` returned a boiling point of 248 °C and a melting point of 24 °C. As to `NCCO`, the boiling point is 171 °C, the log10 vapour pressure (mmHg) is -0.394, the melting point stood at 10.5 °C and the ready biodegradability result is given as “readily biodegradable”. In turn, `CCOC(=O)c1ccc(N)cc1` yielded a boiling point of 310 °C and a melting point of 92 °C. For `Fc1ccncc1`, the boiling point turned out to be 109 °C.

For the molecule `CCCCOC(=O)COC(=O)c1ccccc1C(=O)OCCCC`, the log10 Koc (L/kg) was 3.7 and the ready biodegradability result is recorded as “readily biodegradable”. The molecule `Brc1ccc(I)cc1` returned a boiling point of 252 °C and a melting point of 92 °C. For the molecule `CCCC(=O)[O-].[Na+]`, the melting point was determined as 251 °C. Consider `Clc1cc(Cl)c(OCC#CI)cc1Cl`, for which the melting point is 114 °C. Take `CCN(CC)c1ccc(N=O)cc1`: the melting point was determined as 87.5 °C.

The molecule `BrCCCOc1ccccc1` displayed a melting point of 10.7 °C. Take `O=C(O)c1ccc2ccccc2n1`: the melting point came out at 156 °C and the ready biodegradability result was “readily biodegradable”. The molecule `COc1ccc(C(=O)c2ccc(OC)cc2O)c(O)c1` yielded a melting point of 140 °C. In the case of `Clc1cc(Cl)c2c(Cl)cccc2c1Cl`, the log10 Koa was determined as 8.58.

As to `CCc1ccc(N)cc1`, the boiling point was 218 °C, the log10 vapour pressure (mmHg) is -0.844 and the melting point is -4.8 °C. Consider `CCCc1cccc2ccccc12`, for which the boiling point stood at 274 °C and the melting point is -8.6 °C.

`Clc1cc(Cl)c2c(c1Cl)Oc1ccccc1O2`: the log10 Henry constant (atm·m³/mol) is -4.44, the log10 Koa came to 8.97, the log10 vapour pressure (mmHg) is -6.12 and the melting point was 128 °C. Consider `FC(Cl)(Cl)I`, for which the boiling point was 90 °C and the melting point is -107 °C. In turn, `Cc1ccc(S(=O)(=O)Nc2ccccc2C)cc1` returned a melting point of 110 °C. Still for that read-out and setting: then `O=C(c1ccccc1)C1CC1`, with -7.9 °C. The same measure, in the same setting: then `CCOc1ccc(C(=O)O)cc1`, with 198 °C; and `CN(C)c1ccc(C(=O)c2ccccc2)cc1`, with 92.5 °C. For the molecule `Cc1cccc2ccccc12`, the boiling point turned out to be 245 °C, the log10 Henry constant (atm·m³/mol) was -3.29, the log10 Koc (L/kg) amounted to 3.36 and the log10 biodegradation half-life (days) is 0.962. The log10 vapour pressure (mmHg) is -1.17, the melting point is -30.4 °C and the ready biodegradability result is recorded as “not readily biodegradable”.

For the molecule `CS(=O)(=O)c1ccccc1`, the melting point was 86 °C.

Turning to `C#CC(C)(C)NC(=O)c1ccc(OC)cc1`, the log10 Koc (L/kg) was found to be 1.83. `O=C(O)CCC(=O)c1ccc(-c2ccccc2)cc1` came in with a melting point of 186 °C.

For the molecule `CC(=O)OCC(=O)[C@@]12OC(C)(C)O[C@@H]1C[C@H]1[C@@H]3CC(C=O)=C4C=C(OCCCl)CC[C@]4(C)[C@@]3(F)[C@@H](O)C[C@@]12C`, the melting point is 181 °C. For the molecule `O=C1c2ccccc2C(=O)c2c1ccc([N+](=O)[O-])c2[N+](=O)[O-]`, the log10 vapour pressure (mmHg) was -11.2 and the melting point stood at 341 °C. `OC1CCCCCC1` gave a boiling point of 185 °C and a melting point of 2 °C.

Regarding `NC(=O)NC(=O)Cc1ccccc1`, the melting point was determined as 215 °C.

`FC(F)(F)C(F)(F)C(F)(F)N(C(F)(F)C(F)(F)C(F)(F)F)C(F)(F)C(F)(F)C(F)(F)F`: the boiling point was 130 °C and the melting point is -52 °C. The molecule `CC1=CC(=O)c2ccccc2C1=O` displayed a melting point of 107 °C. Molecule `CCCCNC(C)=O` returned a boiling point of 229 °C.

`CCCCCCCCCS`: the boiling point stood at 220 °C, the log10 vapour pressure (mmHg) was -0.881 and the melting point was -20.1 °C.

Staying with this series, now noted: fish.
The molecule `Brc1cc(Br)c(Br)c(Oc2c(Br)c(Br)c(Br)c(Br)c2Br)c1` returned a log10 BCF of 5.68. The molecule `Clc1cc(Cl)c2c(c1Cl)Oc1ccccc1O2` came in with a log10 BCF of 2.75 and a log10 biotransformation half-life (days) of 0.43. As for `Cc1cccc2ccccc12`, the log10 BCF turned out to be 1.73.

As usually defined, the boiling point is the temperature of boiling at a given pressure. A word on the melting point: it is the temperature, or range, at which the solid turns liquid.
